Five compounds from the supplement of paper PMC8967900 can be followed below.

Test systems include CCRF-HSB2; NALL-1; MOLT-14; KASUMI-2; 697; COG-LL-319h; NALM-6; PF-382; REH; MN-60; P12-ICHIKAWA; KARPAS-45; COG-LL-355h; RCH-ACV; ALL-SIL; MHH-CALL-4; JURKAT; CCRF-CEM; SEM cells; KOPN-8.
Common to all, as to assay: selective drug sensitivity score (sDSS, relative to normal bone marrow) (sDSS (score)); higher = more potent and effective on the cell line relative to normal bone marrow cells
Conditions in all cases: 72 h
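Further: ALL cell lines in 384-well plates, five doses spanning 10,000-fold, each plate scaled between vehicle and 100 µmol/L benzalkonium chloride controls, sDSS an adapted area-under-curve metric.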

Turning to `Nc1nc2cc(-c3ccc4ncc(C(=O)N5CCOCC5)n4c3)ccc2o1` [Serabelisib] (top concentration 10000 nM), the “selective drug sensitivity score” value in the assay on CCRF-HSB2 was -1.24; in the assay on NALL-1 it was -0.64; with MOLT-14 it was 0.96; in the assay with KASUMI-2, 2.96; in the assay on 697 it was 2.96; with COG-LL-319h it was -0.44. The “selective drug sensitivity score” value in the assay on NALM-6 is -1.44; in the assay on PF-382, 0.36; with REH, 0.76; in the assay with MN-60 it was -1.54; with P12-ICHIKAWA, -1.54; in the assay on KARPAS-45, 0.06. In addition, the “selective drug sensitivity score” value was 4.06 in the assay with COG-LL-355h; 6.56 in the assay with RCH-ACV; 0.36 with ALL-SIL; 0.46 in the assay with MHH-CALL-4; -1.54 with JURKAT; 0.76 with CCRF-CEM. For the same compound, the “selective drug sensitivity score” value in the assay with SEM cells turned out to be 1.56; in the assay with KOPN-8 it was 2.56.

For the compound `CCC(C)(C)C(=O)O[C@H]1C[C@@H](C)C=C2C=C[C@H](C)[C@H](CC[C@@H]3C[C@@H](O)CC(=O)O3)[C@H]21` [Simvastatin] (top concentration 10000 nM), the “selective drug sensitivity score” value was 0.08 with CCRF-HSB2; 3.48 with NALL-1; -0.22 in the assay with MOLT-14; -0.72 with KASUMI-2; -0.22 in the assay with 697; 0.68 in the assay with COG-LL-319h. Moreover, the “selective drug sensitivity score” value is 0.08 in the assay with NALM-6; 0.08 with PF-382; 0.88 with REH; -0.72 with MN-60; 2.18 with P12-ICHIKAWA; 2.58 in the assay with KARPAS-45. Also, the “selective drug sensitivity score” value was 3.48 in the assay with COG-LL-355h; 2.18 in the assay on RCH-ACV; 2.38 in the assay on ALL-SIL; 2.58 in the assay with MHH-CALL-4; -0.52 in the assay on JURKAT; 2.38 in the assay on CCRF-CEM. For the same compound, the “selective drug sensitivity score” value in the assay on SEM cells turned out to be 1.58; in the assay on KOPN-8, 4.48.

For the compound `C=CCN(/C=C1/C(=O)O[C@H](COC)[C@@]2(C)C1=C(O)C(=O)C1=C2[C@H](OC(C)=O)C[C@]2(C)C(=O)CC[C@@H]12)CC=C` [Sonolisib] (top concentration 10000 nM), the “selective drug sensitivity score” value in the assay on CCRF-HSB2 is -0.76; in the assay on NALL-1, -0.76; in the assay on MOLT-14, -0.76; with KASUMI-2, -0.76; in the assay on 697, 0.24; with COG-LL-319h, 4.24. The “selective drug sensitivity score” value with NALM-6 is -0.56; in the assay on PF-382 it was -0.76; in the assay on REH, -0.76; in the assay with MN-60, -0.76; with P12-ICHIKAWA, -0.76; in the assay with KARPAS-45 it was -0.76. Besides, the “selective drug sensitivity score” value was 0.94 with COG-LL-355h; 2.14 with RCH-ACV; 2.64 in the assay with ALL-SIL; -0.06 in the assay on MHH-CALL-4; -0.76 in the assay with JURKAT; -0.66 with CCRF-CEM. The “selective drug sensitivity score” value was -0.76 in the assay with SEM cells and -0.16 with KOPN-8.

Regarding `CC(C)n1cnc2c(NCCc3ccc(O)cc3)nc(-c3csc4ccccc34)nc21` [StemRegenin_1] (top concentration 10000 nM), the “selective drug sensitivity score” value in the assay with CCRF-HSB2 is 1.9; with NALL-1, -1.4; in the assay on MOLT-14, -0.2; with KASUMI-2, -1.8; in the assay with 697 it was -0.5; with COG-LL-319h it was -1.8. Further, the “selective drug sensitivity score” value in the assay with NALM-6 was found to be 1.1; with PF-382, 0.9; with REH, 1.8; in the assay on MN-60, 2.7; with P12-ICHIKAWA, 0.2; with KARPAS-45 it was 3.9. Further, the “selective drug sensitivity score” value in the assay on COG-LL-355h was -0.1; in the assay on RCH-ACV it was -0.6; in the assay with ALL-SIL, 3.8; with MHH-CALL-4 it was -1.8; in the assay on JURKAT it was 1; in the assay with CCRF-CEM, 1.4. Also, the “selective drug sensitivity score” value with SEM cells was -0.5; in the assay on KOPN-8, 0.1.

With `CC(C)(O)CC(=O)NCCn1ccc2ncnc(Nc3ccc(Oc4cccc(C(F)(F)F)c4)c(Cl)c3)c21` [TAK-285] (top concentration 2500 nM), the “selective drug sensitivity score” value with CCRF-HSB2 is 0; with NALL-1 it was 0.1; with MOLT-14 it was 0; in the assay on KASUMI-2, 0; in the assay on 697 it was 0; in the assay with COG-LL-319h, 0. The “selective drug sensitivity score” value in the assay with NALM-6 worked out at 0; in the assay on PF-382, 0; with REH, 0.1; in the assay with MN-60, 0; in the assay with P12-ICHIKAWA, 0; in the assay with KARPAS-45, 0. The “selective drug sensitivity score” value amounted to 0 in the assay on COG-LL-355h; 0 in the assay on RCH-ACV; 0 with ALL-SIL; 0 with MHH-CALL-4; 0 in the assay on JURKAT; 0.2 in the assay on CCRF-CEM. Further, the “selective drug sensitivity score” value in the assay on SEM cells and in the assay with KOPN-8 was 0 throughout.
